Experiments:
[1] = tested on: Epidermal growth factor receptor (Homo sapiens), P00533 [UNDEFINED MUTATION]; experiment: Selectivity interaction (KinomeScan (DiscoverX)) EUB0001049a EGFR; details: at 1 µM
[2] = molecular target: T1, Serine/threonine-protein kinase D1 (Homo sapiens) (UniProt Q15139); experiment: Selectivity interaction (Ambit KINOMEscan and KiNATiv profiling in Jurkat cells) EUB0000090b PRKD1; assay type: cell-based; details: at 1 µM
T1 sequence (whole entry): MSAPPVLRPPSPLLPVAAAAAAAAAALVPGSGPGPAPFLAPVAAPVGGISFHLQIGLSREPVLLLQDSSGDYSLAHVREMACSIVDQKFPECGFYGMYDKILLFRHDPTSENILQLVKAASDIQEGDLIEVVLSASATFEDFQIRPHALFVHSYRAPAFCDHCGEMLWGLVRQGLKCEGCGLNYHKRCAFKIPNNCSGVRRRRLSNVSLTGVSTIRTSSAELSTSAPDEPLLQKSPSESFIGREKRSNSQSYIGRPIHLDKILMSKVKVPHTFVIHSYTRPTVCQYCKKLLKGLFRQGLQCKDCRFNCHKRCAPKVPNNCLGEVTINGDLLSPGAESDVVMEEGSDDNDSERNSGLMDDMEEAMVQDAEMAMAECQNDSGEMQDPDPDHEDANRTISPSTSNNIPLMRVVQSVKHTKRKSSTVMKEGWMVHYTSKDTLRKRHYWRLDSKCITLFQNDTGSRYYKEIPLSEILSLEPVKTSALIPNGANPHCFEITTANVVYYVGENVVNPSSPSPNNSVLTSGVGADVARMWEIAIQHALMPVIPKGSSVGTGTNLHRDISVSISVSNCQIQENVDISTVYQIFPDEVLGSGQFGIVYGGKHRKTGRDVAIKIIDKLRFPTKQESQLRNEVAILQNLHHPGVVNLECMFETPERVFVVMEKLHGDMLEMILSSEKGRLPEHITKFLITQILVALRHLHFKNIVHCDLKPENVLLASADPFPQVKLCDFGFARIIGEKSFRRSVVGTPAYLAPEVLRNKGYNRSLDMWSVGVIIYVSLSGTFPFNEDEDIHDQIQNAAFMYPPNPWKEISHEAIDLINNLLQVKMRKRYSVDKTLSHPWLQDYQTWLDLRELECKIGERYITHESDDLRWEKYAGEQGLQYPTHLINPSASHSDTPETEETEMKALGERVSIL

[3] = molecular target: Serine/threonine-protein kinase WNK1 (Homo sapiens) (UniProt Q9H4A3); experiment: Selectivity interaction (ActivX KiNativ screen (kinase selectivity in THP-1 cell lysates)) EUB0000639a WNK1; assay type: subcellular; details: lysate, at 1 µM
Sequence of Serine/threonine-protein kinase WNK1 (Homo sapiens) (Q9H4A3 whole entry, looked up): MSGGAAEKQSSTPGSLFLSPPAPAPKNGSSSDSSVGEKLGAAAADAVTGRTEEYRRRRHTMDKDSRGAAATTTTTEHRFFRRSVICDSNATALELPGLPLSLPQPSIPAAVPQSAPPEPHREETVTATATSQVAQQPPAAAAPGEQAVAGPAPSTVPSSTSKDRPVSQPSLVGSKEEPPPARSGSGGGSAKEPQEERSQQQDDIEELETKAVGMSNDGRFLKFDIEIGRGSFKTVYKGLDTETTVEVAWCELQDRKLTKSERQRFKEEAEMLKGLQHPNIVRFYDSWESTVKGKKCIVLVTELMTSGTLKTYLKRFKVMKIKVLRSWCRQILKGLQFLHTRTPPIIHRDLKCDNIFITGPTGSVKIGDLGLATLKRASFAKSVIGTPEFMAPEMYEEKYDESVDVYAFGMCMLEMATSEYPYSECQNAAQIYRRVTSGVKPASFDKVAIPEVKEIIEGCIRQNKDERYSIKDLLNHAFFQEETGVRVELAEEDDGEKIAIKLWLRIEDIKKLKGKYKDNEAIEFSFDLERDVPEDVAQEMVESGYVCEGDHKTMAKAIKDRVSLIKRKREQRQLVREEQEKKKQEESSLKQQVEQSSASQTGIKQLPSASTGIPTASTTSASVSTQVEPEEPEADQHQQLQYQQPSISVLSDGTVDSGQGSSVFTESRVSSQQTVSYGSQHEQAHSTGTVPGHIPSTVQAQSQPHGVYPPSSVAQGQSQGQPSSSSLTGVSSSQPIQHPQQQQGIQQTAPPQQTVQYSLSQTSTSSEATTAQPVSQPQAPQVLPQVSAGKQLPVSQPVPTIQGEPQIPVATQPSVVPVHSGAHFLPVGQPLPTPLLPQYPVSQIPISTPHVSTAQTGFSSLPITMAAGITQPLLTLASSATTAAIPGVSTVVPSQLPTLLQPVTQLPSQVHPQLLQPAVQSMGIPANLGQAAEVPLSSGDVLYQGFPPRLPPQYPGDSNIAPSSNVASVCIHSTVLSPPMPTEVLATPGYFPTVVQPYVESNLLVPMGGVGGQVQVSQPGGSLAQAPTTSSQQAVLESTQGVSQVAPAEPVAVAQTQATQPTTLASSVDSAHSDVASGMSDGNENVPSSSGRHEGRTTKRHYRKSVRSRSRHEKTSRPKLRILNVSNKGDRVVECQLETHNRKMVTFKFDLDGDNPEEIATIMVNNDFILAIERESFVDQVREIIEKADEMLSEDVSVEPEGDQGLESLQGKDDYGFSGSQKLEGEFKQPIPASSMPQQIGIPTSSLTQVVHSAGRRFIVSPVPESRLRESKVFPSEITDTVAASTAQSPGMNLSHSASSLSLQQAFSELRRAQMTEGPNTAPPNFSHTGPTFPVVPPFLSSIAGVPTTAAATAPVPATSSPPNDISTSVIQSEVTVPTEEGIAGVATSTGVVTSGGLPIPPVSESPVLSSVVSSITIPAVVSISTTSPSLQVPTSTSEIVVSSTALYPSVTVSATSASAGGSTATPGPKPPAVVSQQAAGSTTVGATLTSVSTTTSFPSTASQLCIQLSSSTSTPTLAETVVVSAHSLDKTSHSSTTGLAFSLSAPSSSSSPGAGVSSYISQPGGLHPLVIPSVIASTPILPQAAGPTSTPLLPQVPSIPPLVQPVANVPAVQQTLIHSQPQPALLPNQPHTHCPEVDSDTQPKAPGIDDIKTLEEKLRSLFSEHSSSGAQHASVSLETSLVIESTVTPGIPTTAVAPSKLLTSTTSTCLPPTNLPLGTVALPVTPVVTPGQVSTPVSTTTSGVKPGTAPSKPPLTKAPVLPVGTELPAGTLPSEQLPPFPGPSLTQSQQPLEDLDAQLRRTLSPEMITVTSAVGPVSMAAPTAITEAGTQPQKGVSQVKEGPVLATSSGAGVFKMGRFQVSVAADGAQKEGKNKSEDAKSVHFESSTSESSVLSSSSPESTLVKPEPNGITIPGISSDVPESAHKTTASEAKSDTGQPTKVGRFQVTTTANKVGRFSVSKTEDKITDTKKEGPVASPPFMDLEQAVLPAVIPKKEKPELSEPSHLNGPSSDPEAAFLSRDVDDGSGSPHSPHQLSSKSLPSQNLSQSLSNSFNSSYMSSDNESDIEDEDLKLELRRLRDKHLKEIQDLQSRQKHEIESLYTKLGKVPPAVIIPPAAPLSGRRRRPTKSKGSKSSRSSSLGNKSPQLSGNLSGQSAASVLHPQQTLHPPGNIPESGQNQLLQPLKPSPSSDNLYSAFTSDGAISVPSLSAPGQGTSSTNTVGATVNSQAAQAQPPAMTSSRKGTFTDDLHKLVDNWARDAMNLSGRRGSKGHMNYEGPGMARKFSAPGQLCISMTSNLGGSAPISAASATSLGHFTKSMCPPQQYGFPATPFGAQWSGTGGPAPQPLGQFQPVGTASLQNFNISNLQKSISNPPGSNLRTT

[4] = molecular target: Activin receptor type-1-like (Homo sapiens) (UniProt P37023); details: at 10 µM
Sequence of Activin receptor type-1-like (Homo sapiens) (P37023 whole entry): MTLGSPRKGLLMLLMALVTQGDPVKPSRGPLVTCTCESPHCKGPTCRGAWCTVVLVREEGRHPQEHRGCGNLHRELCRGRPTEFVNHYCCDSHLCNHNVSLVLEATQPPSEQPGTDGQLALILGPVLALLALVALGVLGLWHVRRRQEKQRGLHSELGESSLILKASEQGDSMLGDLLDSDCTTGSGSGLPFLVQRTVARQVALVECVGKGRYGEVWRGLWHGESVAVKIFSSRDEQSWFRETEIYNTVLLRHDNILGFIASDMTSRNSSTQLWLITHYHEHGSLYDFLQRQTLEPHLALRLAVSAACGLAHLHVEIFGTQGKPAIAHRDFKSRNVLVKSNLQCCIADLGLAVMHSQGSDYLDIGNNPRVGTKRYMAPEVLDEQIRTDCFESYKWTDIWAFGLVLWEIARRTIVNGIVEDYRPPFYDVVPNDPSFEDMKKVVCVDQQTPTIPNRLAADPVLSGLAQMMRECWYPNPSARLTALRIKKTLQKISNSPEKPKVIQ

[5] = molecular target: Activin receptor type-1-like (Homo sapiens) (UniProt P37023); experiment: Selectivity interaction (KinomeScan (DiscoverX)) EUB0001079a ACVRL1; details: at 1 µM
Misshapen-like kinase 1 = Misshapen-like kinase 1 (Homo sapiens, UniProt Q8N4C8); experiment: Selectivity interaction (KinomeScan (DiscoverX)) EUB0001079a MINK1; details: at 1 µM
[6] = molecular target: T2, Ephrin type-A receptor 1 (Homo sapiens) (UniProt P21709); experiment: Selectivity interaction (ActivX KiNativ screen (ex vivo kinase selectivity in human PBMCs)) EUB0001619a EPHA1; assay type: cell-based; details: PBMC, at 1 µM
T2 sequence (whole entry): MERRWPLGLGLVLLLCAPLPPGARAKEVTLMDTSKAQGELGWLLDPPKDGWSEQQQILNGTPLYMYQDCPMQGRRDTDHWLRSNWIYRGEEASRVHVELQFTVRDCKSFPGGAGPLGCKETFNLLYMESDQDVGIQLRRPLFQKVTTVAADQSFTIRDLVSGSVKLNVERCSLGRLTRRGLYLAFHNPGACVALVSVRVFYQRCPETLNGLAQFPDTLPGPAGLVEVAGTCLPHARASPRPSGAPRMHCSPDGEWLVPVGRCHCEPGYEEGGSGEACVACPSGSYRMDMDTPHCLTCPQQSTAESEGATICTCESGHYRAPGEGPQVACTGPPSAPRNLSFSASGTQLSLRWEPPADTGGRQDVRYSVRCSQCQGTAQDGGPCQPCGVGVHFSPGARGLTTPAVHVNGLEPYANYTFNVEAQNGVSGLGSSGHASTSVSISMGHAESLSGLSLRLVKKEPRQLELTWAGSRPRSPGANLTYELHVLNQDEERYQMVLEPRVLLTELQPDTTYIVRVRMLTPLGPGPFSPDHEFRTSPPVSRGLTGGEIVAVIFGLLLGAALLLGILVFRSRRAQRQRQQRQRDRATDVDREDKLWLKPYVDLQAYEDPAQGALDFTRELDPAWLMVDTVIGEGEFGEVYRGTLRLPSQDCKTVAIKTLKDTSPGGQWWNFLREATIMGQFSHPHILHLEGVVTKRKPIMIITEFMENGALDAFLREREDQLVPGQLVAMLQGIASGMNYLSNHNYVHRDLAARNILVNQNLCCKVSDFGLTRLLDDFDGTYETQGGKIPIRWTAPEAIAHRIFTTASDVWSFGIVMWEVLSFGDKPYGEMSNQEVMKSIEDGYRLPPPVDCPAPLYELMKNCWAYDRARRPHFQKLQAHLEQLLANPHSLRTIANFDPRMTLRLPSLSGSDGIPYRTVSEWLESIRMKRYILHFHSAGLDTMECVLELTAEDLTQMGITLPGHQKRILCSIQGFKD

[7] = molecular target: Homeodomain-interacting protein kinase 3 (Homo sapiens, UniProt Q9H422); experiment: Selectivity interaction (KinomeScan (DiscoverX)) EUB0001619a HIPK3; details: at 1 µM
Sequence of Homeodomain-interacting protein kinase 3 (Q9H422 whole entry, looked up): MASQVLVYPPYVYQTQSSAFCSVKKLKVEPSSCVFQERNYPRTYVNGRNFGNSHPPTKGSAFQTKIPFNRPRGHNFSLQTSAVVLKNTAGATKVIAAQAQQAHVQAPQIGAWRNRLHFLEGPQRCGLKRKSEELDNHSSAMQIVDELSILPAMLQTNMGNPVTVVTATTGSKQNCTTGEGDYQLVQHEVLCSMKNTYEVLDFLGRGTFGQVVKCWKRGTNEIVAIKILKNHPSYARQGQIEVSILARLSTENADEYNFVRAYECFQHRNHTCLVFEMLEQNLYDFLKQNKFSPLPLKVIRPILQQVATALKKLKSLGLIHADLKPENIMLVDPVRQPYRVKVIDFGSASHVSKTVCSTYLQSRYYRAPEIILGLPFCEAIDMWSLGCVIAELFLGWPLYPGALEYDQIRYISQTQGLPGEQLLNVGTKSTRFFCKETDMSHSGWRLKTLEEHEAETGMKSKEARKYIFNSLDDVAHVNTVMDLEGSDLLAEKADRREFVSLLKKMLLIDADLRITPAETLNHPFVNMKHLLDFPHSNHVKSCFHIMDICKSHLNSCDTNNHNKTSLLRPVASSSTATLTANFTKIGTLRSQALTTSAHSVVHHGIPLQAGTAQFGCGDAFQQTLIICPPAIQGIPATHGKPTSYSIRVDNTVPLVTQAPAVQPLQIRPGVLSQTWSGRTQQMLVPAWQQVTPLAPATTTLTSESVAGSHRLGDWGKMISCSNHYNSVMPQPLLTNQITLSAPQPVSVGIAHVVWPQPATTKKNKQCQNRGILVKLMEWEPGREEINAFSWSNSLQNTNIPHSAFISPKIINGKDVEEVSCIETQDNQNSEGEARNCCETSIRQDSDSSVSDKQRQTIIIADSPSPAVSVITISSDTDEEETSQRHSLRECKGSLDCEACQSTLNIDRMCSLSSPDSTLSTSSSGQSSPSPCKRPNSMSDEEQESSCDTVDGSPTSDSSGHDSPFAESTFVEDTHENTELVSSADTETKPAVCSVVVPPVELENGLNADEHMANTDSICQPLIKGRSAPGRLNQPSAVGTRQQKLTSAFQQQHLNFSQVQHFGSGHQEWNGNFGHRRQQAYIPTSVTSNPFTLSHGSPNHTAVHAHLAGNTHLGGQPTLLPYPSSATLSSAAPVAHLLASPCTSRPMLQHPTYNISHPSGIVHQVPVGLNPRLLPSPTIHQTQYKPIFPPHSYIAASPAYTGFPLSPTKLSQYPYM

[8] = molecular target: Casein kinase II subunit alpha' (Homo sapiens) (UniProt P19784); experiment: Selectivity interaction (Kinase panel (KiNativ target engagement assay in Jurkat cells)) EUB0001635a CSNK2A2; assay type: cell-based; details: Selectivity number of off-targets 0.0, Selectivity number of targets 233.0, Source Knowledge https://www.sciencedirect.com/science/article/pii/S2451945619300674?via%3Dihub, at 1 µM
Sequence of Casein kinase II subunit alpha' (Homo sapiens) (P19784 whole entry, looked up): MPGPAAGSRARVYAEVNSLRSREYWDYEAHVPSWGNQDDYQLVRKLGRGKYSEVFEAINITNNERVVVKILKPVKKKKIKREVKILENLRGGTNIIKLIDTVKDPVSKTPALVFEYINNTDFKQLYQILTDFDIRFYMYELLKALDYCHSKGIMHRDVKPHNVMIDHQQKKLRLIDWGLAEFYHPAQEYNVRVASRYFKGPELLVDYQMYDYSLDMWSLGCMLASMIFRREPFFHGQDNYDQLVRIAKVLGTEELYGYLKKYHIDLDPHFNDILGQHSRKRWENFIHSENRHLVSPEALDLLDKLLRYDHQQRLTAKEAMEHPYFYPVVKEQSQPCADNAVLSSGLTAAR

With `COc1cc(Nc2nc(C)cc(-c3cnn4nc(OC)ccc34)n2)cc(C(F)(F)F)c1` the % of control [1] was 100%.

Work on `CN(C)C/C=C/C(=O)Nc1ccc(C(=O)N2CCCC(Nc3ncc(Cl)c(-c4c[nH]c5ccccc45)n3)C2)cc1` (centres undefined) yielded a % of control [2] of 31%.

In the case of `CC[C@@H]1[C@H](F)C(=O)N[C@@H]1COc1nccc2cc(C(N)=O)c(OC)cc12` [ZIMLOVISERTIB], the % of inhibition [3] is reported as -7.7%.

Work on `CCN(CC)CCCCNc1ncc2cc(-c3cc(OC)cc(OC)c3)c(NC(=O)NC(C)(C)C)nc2n1` yielded a % of control [4] of 100%.

`Nc1cnc(N2CCc3cc(S(=O)(=O)Nc4c(F)cc(Cl)cc4F)cc(N4CCCC4=O)c32)nc1` [TP-020n] was tested, and the % of control [5] was 86% and the % of control (Misshapen-like kinase 1) was 100%.

`N#Cc1cccc(-c2c[nH]c3ncnc(N4CCOCC4)c23)c1` gave a % of inhibition [6] of -3% and a % of control [7] of 47%.

`C=CC(=O)Nc1ccc(C(=O)Nc2[nH]nc3c2CN(C(=O)N[C@H](CN(C)C)c2ccccc2)C3(C)C)cc1` showed a % of engagement [8] of -0.9%.

Reference: ChEMBL document CHEMBL5465560, “Selectivity Literature for EUbOPEN Chemogenomic Library” (2024)
